Experimental data: US6372752B1 (priority 2000, dated 2002)
Counter-ions that a name gives are not always drawn. Like-named read-outs stand apart in the source and are kept apart here.

Legend:
[1] = tested on: h. Kidney; assay: Cell Tox (h. Kidney); conditions: h. Kidney cells
[2] = tested on: Bacillus Calmet-Guerin (BCG), Pasteur strain, of Mycobacterium bovis; assay: microbe, parasite or virus in culture; assay type: cell-based; conditions: Mycobacterium tuberculosis variant bovis BCG
[3] = molecular target: InhA (Mycobacterium tuberculosis, UniProt P9WGR1); assay: InhA inhibition assay (NADH consumption, absorbance at 340); assay type: biochemical; conditions: for inhibition at 40 µM: 40 μM compound, read-out: Percentage Inhibition (@ 40 μM)
[4] = tested on: h. Lung; assay: Cell Tox (h. Lung); conditions: h. Lung cells
[5] = tested on: m. Embryo; assay: Cell Tox (m. Embryo); conditions: m. Embryo cells
[6] = read-out: IC50's for BCG growth

InhA, sequence (P9WGR1 whole entry, looked up): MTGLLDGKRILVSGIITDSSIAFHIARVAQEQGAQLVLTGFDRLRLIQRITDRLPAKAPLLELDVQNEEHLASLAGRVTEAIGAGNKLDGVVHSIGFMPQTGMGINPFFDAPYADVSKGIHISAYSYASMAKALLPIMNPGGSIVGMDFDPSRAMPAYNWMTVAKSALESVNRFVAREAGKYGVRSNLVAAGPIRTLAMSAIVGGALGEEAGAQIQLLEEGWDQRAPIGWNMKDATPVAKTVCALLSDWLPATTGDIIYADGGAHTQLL

CCCC(=O)C1(c2ccccc2)CCN(C(=O)c2ccc3[nH]ccc3c2)CC1 [Compound 4, 1-[1-(1H-Indole-5-carbonyl)-4-phenyl-piperidin-4-yl]-butan-1-one] was tested, and the “Cell Tox (h. Kidney)” value [1] was 23 to 48 µM, the IC50 ([2]; read-out: BCG Growth IC-50) was greater than 25000 nM and the IC50 [3] was 230 nM. The “Cell Tox (h. Lung)” value [4] was 33 to 50 µM and the “Cell Tox (m. Embryo)” value [5] was 46 to 50 µM.
O=C(c1ccc2[nH]ccc2c1)N1CCN(C2c3cc(Br)ccc3-c3ccc(Br)cc32)CC1 [Compound 73] showed an IC50 ([2]; read-out: BCG Growth IC-50) of 6200 nM and an IC50 ([3]; Table 9, read-out: InhA IC-50) of 120 nM.
With O=C(c1ccc2[nH]ccc2c1)N1CCN(c2cccc(C(F)(F)F)c2)CC1 [Compound 59] the IC50 [3] was 1890 nM.
O=C(Cc1ccccc1F)NCCc1ccc(Cl)cc1 [Compound 1, N-[2-(4-Chlorophenyl)-ethyl]-2-(2-fluoro-phenyl)acetamide] was tested, and the inhibition at 40 µM ([3]; Table 2) was 82%.
CCCCCCCCCCCCCCCC(=O)SCCNC(=O)CCNC(=O)[C@H](O)C(C)(C)COP(=O)(O)OP(=O)(O)OC[C@H]1O[C@@H](n2cnc3c(N)ncnc32)[C@H](O)[C@@H]1OP(=O)(O)O [palmitoyl-CoA, reference compound] showed an inhibition at 375 µM ([3]; at 375 uM, read-out: inhibition by internal standard) of roughly 40%.
O=C(c1ccc2[nH]ccc2c1)N1CCN(c2ccc(Cl)cc2)CC1 [Compound 56] gave an IC50 [3] of 4200 nM.
With NNC(=O)c1ccncc1 [isoniazid, isonicotinic acid hydrazide] the IC50 ([2]; read-out: BCG Growth IC-50) was 3000 nM and the IC50 [2, 6] was 3000 nM.
For O=C(c1ccc2[nH]ccc2c1)N1CCN(C2c3ccccc3-c3ccc([N+](=O)[O-])cc32)CC1 (stereo not shown) [Compound 71], the “Cell Tox (h. Kidney)” value [1] was 28 µM, the IC50 ([2]; read-out: BCG Growth IC-50) was 8300 nM and the IC50 ([3]; Table 9, read-out: InhA IC-50) was 120 nM. For the same compound, the “Cell Tox (h. Lung)” value [4] was 37 µM and the “Cell Tox (m. Embryo)” value [5] was 23 µM.
In the case of O=C(c1ccc2[nH]ccc2c1)N1CCN(C2c3ccccc3-c3cc([N+](=O)[O-])ccc32)CC1 (stereo not shown) [Compound 72], the “Cell Tox (h. Kidney)” value [1] is reported as 29 µM, the IC50 ([2]; read-out: BCG Growth IC-50) is reported as 2800 nM and the IC50 ([3]; Table 9, read-out: InhA IC-50) is reported as 130 nM. The “Cell Tox (h. Lung)” value [4] was 34 µM and the “Cell Tox (m. Embryo)” value [5] was 23 µM.
O=C(c1ccc(Cl)cc1)C1CCN(C(=O)c2ccc3[nH]ccc3c2)CC1 [Compound 5, [4-(4-Chlorobenzoyl)-piperidin-1-yl]-(1H-indol-5-yl)-methanone] gave an inhibition at 40 µM ([3]; Table 6) of 97%.
In the case of O=C(c1ccc2[nH]ccc2c1)N1CCN(C2c3ccccc3-c3ccccc32)CC1 [Compound 70], the “Cell Tox (h. Kidney)” value [1] is reported as 35 to 44 µM, the IC50 ([2]; read-out: BCG Growth IC-50) is reported as 8300 nM and the “Cell Tox (h. Lung)” value [4] is reported as 24 to 48 µM. The “Cell Tox (m. Embryo)” value [5] was 46 to 52 µM.
Work on CC[C@@H](CO)NCCN[C@@H](CC)CO [ethambutol, ethambutol dihydrochloride] yielded an IC50 ([2]; read-out: BCG Growth IC-50) of 10000 nM and an IC50 [2, 6] of 10000 nM.
CO[C@H]1/C=C/O[C@@]2(C)Oc3c(C)c(O)c4c(O)c(c(/C=N/N5CCN(C)CC5)c(O)c4c3C2=O)NC(=O)/C(C)=C\C=C\[C@H](C)[C@H](O)[C@@H](C)[C@@H](O)[C@@H](C)[C@H](OC(C)=O)[C@@H]1C [rifampicin] gave an IC50 ([2]; read-out: BCG Growth IC-50) of 10 nM and an IC50 [2, 6] of 10 nM.
O=C(c1ccc2[nH]ccc2c1)N1CCN(c2cccc(Cl)c2)CC1 [Compound 58] showed an IC50 [3] of 1210 nM.
Cc1ccc(Cl)cc1N1CCN(C(=O)c2ccc3[nH]ccc3c2)CC1 [Compound 57] showed an IC50 [3] of 1040 nM.
